Data as given in ChEMBL document CHEMBL1201862, “PubChem BioAssay data set” (2004).
Calls of active or inactive are those of the source.

Tests used:
HEK293 [1] = assay: cells; conditions: Homo sapiens
[2] = target: T1, Luciferin 4-monooxygenase (Photinus pyralis, UniProt P08659); assay: firefly luciferase enzyme inhibitors, dose response, biochemical, dry powder samples, plate reader (AID 588451)
[3] = Shn3 3'UTR reporter inhibitors, dose response, cell-based, Clone20 osteoblasts, firefly luciferase, cherry-picked (AID 624132); assay type: functional;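 further: firefly luciferase luminescence from reporter carrying the Shn3 3'UTR in osteoblasts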
[4] = luciferase reporter signal reduction – luminescence, H4-C neuroglioblastoma cells, dose response (AID 2458); assay type: functional, cell-based;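 further: H4 neuroglioblastoma cells stably carrying a luciferase reporter gene fusion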
Tumor necrosis factor = Tumor necrosis factor (Homo sapiens, UniProt P01375); assay: TNFa-triggered NF-kB activation inhibitors, SAR follow-up, cell-based, revised (AID 2337); assay type: functional
cells [5] = assay type: functional, cell-based
[6] = Luminescence Cell-Based Dose Response HTS to Identify Inhibitors of 5'UTR Stem-Loop Driven Prion Protein mRNA Translation in H4 Neuroglioblastoma Cells. [Related pubchem assays: 1827 (Project Summary), 1813 (Primary HTS)]; assay type: functional
[7] = Luminescence-based counterscreen assay for KLF5 inhibitors: dose response cell-based high throughput screening assay to identify cytotoxic compounds using the IEC-6 intestinal epithelial cell line. [Related pubchem assays: 1700 (Primary screen.), 1834 (Confirmation screen.), 1858 (Summary AID.), 1905 (Counterscreen.)]; assay type: functional
H4 [8] = assay: Inhibitors of Prion Protein 5' UTR mRNA Measured in Cell-Based System Using Plate Reader - 2078-01_Inhibitor_Dose_DryPowder_Activity. [Related pubchem assays (depositor defined):AID488894]; assay type: functional; conditions: Homo sapiens
[9] = inhibitors of SNCA 5'UTR-driven reporter translation, confirmation, H4 neuroglioma cells, luminescence (AID 1988); assay type: functional, cell-based
[10] = inhibitors of firefly luciferase expression or activity, dose response, H4 neuroglioma cells, luminescence (AID 1990); assay type: functional, cell-based
[11] = inhibitors of SNCA 5'UTR-driven translation, confirmation, luminescence, H4 neuroglioblastoma cells, dose confirmation (AID 2454); assay type: functional, cell-based;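 further: H4 neuroglioblastoma cells carrying an alpha-synuclein 5'UTR luciferase reporter; potency for inhibition of the luciferase signal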
H4 [12] = assay: inhibitors of control reporter signal in H4 cells – cell-based, plate reader, dry powder samples, counter-screen for prion reporter project, dose response (AID 540255); assay type: functional; conditions: Homo sapiens
[13] = target: T2, Heat shock factor protein 1 (Mus musculus, UniProt P38532); assay: inhibition of MG132-induced HSE-luciferase signal, confirmation, cell-based, NIH3T3, luminescence, dose retest (AID 2382); assay type: functional;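 further: NIH3T3 fibroblasts with HSF1-driven luciferase reporter stressed by proteasome inhibitor MG132; luminescence from HSF1-driven luciferase expression after 8 hours of MG132 stress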
T2 sequence (P38532 whole entry): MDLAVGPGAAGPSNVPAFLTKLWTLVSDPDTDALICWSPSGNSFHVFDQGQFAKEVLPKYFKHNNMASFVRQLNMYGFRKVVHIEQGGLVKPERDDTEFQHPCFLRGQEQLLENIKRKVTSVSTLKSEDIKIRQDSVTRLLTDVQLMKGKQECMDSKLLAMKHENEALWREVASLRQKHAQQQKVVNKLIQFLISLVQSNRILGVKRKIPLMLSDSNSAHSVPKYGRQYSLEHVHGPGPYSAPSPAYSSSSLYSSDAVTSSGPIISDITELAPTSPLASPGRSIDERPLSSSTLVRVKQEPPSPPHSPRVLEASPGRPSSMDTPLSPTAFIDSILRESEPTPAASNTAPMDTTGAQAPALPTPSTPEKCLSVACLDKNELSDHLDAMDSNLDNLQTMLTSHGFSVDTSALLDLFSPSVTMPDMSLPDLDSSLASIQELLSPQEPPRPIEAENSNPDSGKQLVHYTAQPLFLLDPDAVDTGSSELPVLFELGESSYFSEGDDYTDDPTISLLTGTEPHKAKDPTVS

[14] = reduction of Shn3 3'UTR firefly luciferase signal, dose response, Schnurri-3 inhibitor project, cell-based, Clone20 osteoblasts, cherry-pick, set 2 (AID 720490); assay type: functional;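 further: actives lower the luminescence signal as inhibitors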
H4 [15] = assay: Amyloid Precursor 5' UTR neuroblastoma cell reporter line Measured in Cell-Based System Using Plate Reader - 2078-04_Inhibitor_Dose_DryPowder_Activity. [Related pubchem assays (depositor defined):AID488894]; assay type: functional; conditions: Homo sapiens
[16] = target: T3, Nucleotide-binding oligomerization domain-containing protein 1 (Homo sapiens, UniProt Q9Y239); assay: NOD1 signaling inhibitors, SAR follow-up, revised (AID 2333); assay type: functional
T3 sequence (Q9Y239 whole entry): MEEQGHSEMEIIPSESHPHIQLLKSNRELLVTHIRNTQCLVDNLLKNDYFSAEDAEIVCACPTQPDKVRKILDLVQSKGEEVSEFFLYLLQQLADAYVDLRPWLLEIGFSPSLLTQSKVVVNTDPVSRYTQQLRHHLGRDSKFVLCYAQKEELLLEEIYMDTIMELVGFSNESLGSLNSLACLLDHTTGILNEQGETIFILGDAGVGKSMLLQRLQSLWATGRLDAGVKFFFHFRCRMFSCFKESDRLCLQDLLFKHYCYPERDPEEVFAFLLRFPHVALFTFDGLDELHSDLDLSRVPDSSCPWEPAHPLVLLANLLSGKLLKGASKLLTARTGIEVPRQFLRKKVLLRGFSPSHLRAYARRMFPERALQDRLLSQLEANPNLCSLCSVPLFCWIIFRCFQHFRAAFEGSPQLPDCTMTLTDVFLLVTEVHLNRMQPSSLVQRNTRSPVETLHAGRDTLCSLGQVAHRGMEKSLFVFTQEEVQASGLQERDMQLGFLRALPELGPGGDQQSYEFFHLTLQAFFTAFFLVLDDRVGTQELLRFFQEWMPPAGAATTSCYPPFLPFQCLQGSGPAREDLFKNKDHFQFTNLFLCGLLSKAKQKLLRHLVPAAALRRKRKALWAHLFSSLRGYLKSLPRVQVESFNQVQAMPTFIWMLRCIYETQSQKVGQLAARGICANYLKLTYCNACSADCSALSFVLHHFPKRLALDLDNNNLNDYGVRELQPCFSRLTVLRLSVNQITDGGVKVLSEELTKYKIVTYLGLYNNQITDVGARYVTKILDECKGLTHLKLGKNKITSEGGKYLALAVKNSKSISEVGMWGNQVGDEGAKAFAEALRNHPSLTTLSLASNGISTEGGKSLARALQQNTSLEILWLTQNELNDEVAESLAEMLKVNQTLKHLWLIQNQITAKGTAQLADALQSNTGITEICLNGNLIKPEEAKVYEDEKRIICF

Streptococcus [17] = assay: Luminescence Microorganism-Based Dose Response Follow up to Identify Compounds Cytotoxic to Streptococcus. [Related pubchem assays: 1677 (Project Summary), 1915, 1914, 1902 (Retest at Dose), 1900 (Counter Screen), 1662 (Primary HTS)]; assay type: functional, organism-based
[18] = test system: Streptococcus sp. 'group A'; assay: growth inhibition of control SK(-) GAS strain, dose response, counter-screen for streptokinase expression inhibitor project, luminescence, kanamycin, BacTiterGlo, confirmation (AID 1900); assay type: functional, organism-based
Streptococcus [19] = assay: Group A Streptococcus viability loss, dose response, counter-screen for streptokinase expression inhibitor project, luminescence, BacTiterGlo (AID 1915); assay type: functional, organism-based;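 further: potency for reduction of bacterial viability or growth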
Streptokinase A = target: T4, Streptokinase A (Streptococcus pyogenes serotype M1, UniProt P10520); assay: S. pyogenes streptokinase expression inhibitors, potency, dose response, plasminogen activation absorbance, OD405 (AID 1914); assay type: functional, Streptococcus pyogenes M1 GAS;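 further: secreted streptokinase activity via plasminogen activation per viability signal from cell pellet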
T4 sequence (P10520 whole entry): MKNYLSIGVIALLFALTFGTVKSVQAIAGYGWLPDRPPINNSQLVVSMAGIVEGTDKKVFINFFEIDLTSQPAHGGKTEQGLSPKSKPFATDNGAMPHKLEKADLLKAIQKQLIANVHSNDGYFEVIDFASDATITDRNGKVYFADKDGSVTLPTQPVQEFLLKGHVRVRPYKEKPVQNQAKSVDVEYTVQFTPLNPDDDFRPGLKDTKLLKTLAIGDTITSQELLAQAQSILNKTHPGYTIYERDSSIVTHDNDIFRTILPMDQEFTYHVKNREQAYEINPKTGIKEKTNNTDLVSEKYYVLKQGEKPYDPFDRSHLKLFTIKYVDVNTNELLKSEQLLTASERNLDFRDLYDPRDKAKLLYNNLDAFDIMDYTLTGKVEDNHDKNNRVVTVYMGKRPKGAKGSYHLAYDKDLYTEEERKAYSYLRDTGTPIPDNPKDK

[20] = target: T1, Luciferin 4-monooxygenase; assay: firefly luciferase enzyme inhibitors, dose response, biochemical, luminescence (AID 1891)
[21] = Luminescence Cell-Based Dose Confirmation HTS to Identify Activators of 5'UTR Stem-Loop Driven Alpha-Synuclein mRNA Translation in H4 Neuroglioblastoma Cells. [Related pubchem assays: 1829 (Project Summary), 1814 (Primary HTS)]; assay type: functional
[22] = target: Neuropeptide Y receptor type 1 (Homo sapiens, UniProt P25929); assay: Fluorescence-based counterscreen for agonists of NPY-Y2: cell-based high-throughput dose response assay for agonists of NPY-Y1.; assay type: functional
H4 [23] = assay: Luminescence Cell-Based Dose Response HTS to Identify Activators of 5'UTR Stem-Loop Driven Prion Protein mRNA Translation in H4 Neuroglioblastoma Cells. [Related pubchem assays: 1829 (Project Summary), 1814 (Primary HTS)]; assay type: functional; conditions: Homo sapiens
cells [24] = assay type: functional, cell-based; conditions: HEK-CNG
Galanin receptor type 3 = Galanin receptor type 3 (Homo sapiens, UniProt O60755); assay: Fluorescence-based cell-based primary high throughput dose response assay to identify antagonists of the Galanin Receptor 3 (GalR3).; assay type: functional
[25] = target: Neuropeptide Y receptor type 2 (Homo sapiens, UniProt P49146); assay: Fluorescence-based cell-based high-throughput dose response assay for agonists of NPY-Y2. [Related pubchem assays: 1703 (Screening assay (CNGC inhibitors).), 1359 (Screening assay (NPY-Y2 potentiators or agonists).), 1304 (Screening assay (NPY-Y1 potentiators or agonists).), 1710 (Screening assay (NPY-Y2 agonists).), 1791 (Summary AID.)]; assay type: functional
[26] = Luminescence Cell-Based Dose Response HTS to Identify Activators of Luciferase Translation or Activity in H4 […] Cells. [Related pubchem assays: 1829 (Project Summary), 1814 (Primary HTS)]; assay type: functional
HEK293 [27] = assay: Fluorescence-based counterscreen for potentiators or agonists of NPY-Y2: cell-based high-throughput dose response assay to identify inhibitors of cyclic nucleotide gated ion channel (CNGC) activity. In this assay, the parental HEK293 cell line transfected with a cyclic-nucleotide gated ion channel (CNGC)-based cAMP sensor is used to measure inhibition of isoproterenol-induced CNGC activity by test compound.; assay type: functional; conditions: Homo sapiens
[28] = Luminescence Cell-Based Dose Confirmation HTS to Identify Inhibitors of Platelet Dense Granule Release. [Related pubchem assays: 1663 (Primary HTS), 1678 (Summary of Project)]; assay type: functional
[29] = target: Tyrosine-protein phosphatase non-receptor type 5 (Homo sapiens, UniProt P54829); assay: STEP phosphatase inhibitors, confirmation, biochemical, fluorescence intensity, uHTS hits (AID 602372); assay type: functional; conditions: read-out: IC50_Mean
ORF 73 = ORF 73 (Human herpesvirus 8, UniProt O40947); assay: inhibitors of C-LANA binding to LBS DNA, dose response, biochemical, fluorescence polarization, cherry-picked samples (AID 504725); design: species or system Human gammaherpesvirus 8;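 further: fluorescence polarization of a labeled DNA duplex reporting LANA DNA binding; potency is for inhibitors that block LANA binding to the DNA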
[30] = target: Dual specificity protein phosphatase 3 (Homo sapiens, UniProt P51452); assay: VHR phosphatase inhibition, dose response, selectivity assay for STEP inhibitor project, biochemical (AID 602374); assay type: functional; conditions: read-out: IC50_Mean
HeLa = assay: HeLa cell cytotoxicity, dose response, cytotoxicity control, 24 h, cherry-picked samples (AID 504726); assay type: functional, cell-based; conditions: Homo sapiens;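 further: potency for cytotoxicity as loss of luminescence signal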
Genome polyprotein = Genome polyprotein (dengue virus type 2, UniProt P29990); assay: Dengue-2 NS5 methyltransferase inhibitors, primary screen, biochemical, confirmation dose response (AID 588689); assay type: functional
Vero = Vero cell cytotoxicity, cytotoxicity control for flavivirus capping enzyme inhibitors (AID 588742); assay type: functional; conditions: Chlorocebus sabaeus
[31] = target: Tyrosine-protein phosphatase non-receptor type 11 (Homo sapiens, UniProt Q06124); assay: SHP2 phosphatase inhibition, dose response, selectivity assay for STEP inhibitor project, biochemical (AID 602367); assay type: functional; conditions: read-out: IC50_Mean
Tyrosine-protein phosphatase non-receptor type 11, sequence (Q06124 whole entry): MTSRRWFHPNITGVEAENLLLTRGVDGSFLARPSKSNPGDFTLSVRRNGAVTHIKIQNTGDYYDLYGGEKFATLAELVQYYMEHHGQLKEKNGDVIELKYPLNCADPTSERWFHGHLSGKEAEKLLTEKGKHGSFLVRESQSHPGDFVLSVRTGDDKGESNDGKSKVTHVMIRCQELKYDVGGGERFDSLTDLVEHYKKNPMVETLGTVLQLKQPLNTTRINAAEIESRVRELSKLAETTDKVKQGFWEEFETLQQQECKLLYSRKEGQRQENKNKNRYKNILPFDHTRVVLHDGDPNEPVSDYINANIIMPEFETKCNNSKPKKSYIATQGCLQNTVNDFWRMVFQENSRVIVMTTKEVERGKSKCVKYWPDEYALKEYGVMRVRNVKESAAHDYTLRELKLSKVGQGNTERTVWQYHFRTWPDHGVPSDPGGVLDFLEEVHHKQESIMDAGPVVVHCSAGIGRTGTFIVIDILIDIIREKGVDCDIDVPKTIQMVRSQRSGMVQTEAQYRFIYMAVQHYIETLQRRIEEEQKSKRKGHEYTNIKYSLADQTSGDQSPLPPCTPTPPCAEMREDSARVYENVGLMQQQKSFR

T1 sequence (P08659 whole entry): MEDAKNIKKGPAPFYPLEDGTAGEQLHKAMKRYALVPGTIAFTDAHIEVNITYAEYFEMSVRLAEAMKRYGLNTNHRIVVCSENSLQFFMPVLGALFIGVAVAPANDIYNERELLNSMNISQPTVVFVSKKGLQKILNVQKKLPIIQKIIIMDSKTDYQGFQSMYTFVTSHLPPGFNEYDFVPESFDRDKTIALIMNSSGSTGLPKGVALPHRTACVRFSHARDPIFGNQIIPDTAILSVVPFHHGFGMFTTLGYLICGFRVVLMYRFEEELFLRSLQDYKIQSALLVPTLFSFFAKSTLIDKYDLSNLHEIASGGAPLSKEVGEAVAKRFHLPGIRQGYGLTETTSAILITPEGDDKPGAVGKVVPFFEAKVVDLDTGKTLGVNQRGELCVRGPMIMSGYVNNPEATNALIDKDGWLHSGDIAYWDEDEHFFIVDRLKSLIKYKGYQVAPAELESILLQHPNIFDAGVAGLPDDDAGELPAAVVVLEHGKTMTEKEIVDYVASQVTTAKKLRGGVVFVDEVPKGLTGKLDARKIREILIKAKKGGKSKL
Tyrosine-protein phosphatase non-receptor type 5, sequence (P54829 whole entry): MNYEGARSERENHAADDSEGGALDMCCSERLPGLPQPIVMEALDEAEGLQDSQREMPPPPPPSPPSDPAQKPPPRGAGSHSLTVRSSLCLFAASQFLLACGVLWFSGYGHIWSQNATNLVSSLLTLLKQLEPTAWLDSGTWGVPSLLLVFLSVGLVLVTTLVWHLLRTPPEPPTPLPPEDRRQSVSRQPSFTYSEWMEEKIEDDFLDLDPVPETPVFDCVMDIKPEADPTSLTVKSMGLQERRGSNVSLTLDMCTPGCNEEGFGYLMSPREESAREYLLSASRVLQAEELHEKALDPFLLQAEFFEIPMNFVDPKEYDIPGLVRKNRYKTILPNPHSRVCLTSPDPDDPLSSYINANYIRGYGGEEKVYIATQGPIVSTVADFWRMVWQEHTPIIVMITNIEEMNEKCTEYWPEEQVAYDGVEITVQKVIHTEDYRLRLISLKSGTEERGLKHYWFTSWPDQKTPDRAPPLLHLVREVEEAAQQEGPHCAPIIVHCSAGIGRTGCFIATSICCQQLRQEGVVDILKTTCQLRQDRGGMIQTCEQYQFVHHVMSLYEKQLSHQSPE
Galanin receptor type 3, sequence (O60755 whole entry): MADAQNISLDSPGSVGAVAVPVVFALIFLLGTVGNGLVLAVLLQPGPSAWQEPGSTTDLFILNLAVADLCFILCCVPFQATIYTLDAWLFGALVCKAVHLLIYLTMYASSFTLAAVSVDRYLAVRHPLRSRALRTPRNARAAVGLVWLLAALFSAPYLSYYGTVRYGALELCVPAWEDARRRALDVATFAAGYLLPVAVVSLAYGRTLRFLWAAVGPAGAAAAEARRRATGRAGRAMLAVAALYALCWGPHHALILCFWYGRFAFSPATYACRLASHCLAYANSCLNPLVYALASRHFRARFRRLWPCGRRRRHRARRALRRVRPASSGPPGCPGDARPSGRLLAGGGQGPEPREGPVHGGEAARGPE
Genome polyprotein, sequence (P29990 2492-3391 limits assumed): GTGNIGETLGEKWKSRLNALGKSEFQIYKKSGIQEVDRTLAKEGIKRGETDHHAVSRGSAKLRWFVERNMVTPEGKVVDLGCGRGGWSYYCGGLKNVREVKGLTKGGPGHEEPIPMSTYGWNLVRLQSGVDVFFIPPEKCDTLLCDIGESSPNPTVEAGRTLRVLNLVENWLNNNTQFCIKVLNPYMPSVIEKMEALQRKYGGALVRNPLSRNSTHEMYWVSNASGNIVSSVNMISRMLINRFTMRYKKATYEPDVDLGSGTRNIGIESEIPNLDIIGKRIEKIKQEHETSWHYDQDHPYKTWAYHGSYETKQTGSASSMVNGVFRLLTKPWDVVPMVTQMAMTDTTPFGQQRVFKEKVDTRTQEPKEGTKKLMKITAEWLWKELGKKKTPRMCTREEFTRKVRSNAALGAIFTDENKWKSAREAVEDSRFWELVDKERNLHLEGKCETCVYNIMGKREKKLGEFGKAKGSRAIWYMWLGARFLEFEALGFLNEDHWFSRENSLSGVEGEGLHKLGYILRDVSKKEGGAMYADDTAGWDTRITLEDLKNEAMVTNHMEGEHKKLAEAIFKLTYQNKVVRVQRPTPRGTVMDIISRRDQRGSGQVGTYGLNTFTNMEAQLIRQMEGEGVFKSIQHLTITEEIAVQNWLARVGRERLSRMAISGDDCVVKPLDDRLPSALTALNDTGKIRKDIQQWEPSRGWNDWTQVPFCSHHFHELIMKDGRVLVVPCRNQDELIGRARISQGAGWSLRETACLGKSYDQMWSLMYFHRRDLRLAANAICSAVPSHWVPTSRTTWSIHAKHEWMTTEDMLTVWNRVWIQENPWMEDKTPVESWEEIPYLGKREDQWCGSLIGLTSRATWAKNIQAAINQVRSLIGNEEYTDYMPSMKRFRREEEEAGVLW
Dual specificity protein phosphatase 3, sequence (P51452 whole entry): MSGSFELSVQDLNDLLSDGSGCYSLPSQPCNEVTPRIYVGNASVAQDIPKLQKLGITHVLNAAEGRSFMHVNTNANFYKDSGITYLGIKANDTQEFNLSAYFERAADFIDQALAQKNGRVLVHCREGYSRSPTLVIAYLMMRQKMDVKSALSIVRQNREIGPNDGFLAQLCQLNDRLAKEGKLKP
Neuropeptide Y receptor type 1, sequence (P25929 whole entry): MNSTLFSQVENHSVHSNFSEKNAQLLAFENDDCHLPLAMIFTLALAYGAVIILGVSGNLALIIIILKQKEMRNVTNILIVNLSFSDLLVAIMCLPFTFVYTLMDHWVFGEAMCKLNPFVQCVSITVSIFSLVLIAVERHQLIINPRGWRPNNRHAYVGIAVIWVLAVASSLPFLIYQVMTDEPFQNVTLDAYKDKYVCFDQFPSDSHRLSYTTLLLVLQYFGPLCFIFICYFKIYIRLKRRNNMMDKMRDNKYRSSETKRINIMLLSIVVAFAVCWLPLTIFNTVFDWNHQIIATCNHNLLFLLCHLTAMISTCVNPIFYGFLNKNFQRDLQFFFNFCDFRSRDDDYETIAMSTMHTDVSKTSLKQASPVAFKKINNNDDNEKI
Neuropeptide Y receptor type 2, sequence (P49146 whole entry): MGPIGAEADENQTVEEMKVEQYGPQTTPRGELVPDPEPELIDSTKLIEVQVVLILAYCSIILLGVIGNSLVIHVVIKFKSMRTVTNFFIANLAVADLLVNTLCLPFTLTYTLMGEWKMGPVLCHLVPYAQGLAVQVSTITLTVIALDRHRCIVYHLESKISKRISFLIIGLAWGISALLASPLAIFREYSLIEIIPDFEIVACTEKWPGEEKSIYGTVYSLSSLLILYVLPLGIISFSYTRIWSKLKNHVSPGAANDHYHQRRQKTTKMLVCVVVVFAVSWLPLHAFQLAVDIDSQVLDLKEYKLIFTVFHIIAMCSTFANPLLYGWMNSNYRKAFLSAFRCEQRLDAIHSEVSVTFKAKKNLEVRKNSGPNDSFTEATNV
ORF 73, sequence (O40947 whole entry): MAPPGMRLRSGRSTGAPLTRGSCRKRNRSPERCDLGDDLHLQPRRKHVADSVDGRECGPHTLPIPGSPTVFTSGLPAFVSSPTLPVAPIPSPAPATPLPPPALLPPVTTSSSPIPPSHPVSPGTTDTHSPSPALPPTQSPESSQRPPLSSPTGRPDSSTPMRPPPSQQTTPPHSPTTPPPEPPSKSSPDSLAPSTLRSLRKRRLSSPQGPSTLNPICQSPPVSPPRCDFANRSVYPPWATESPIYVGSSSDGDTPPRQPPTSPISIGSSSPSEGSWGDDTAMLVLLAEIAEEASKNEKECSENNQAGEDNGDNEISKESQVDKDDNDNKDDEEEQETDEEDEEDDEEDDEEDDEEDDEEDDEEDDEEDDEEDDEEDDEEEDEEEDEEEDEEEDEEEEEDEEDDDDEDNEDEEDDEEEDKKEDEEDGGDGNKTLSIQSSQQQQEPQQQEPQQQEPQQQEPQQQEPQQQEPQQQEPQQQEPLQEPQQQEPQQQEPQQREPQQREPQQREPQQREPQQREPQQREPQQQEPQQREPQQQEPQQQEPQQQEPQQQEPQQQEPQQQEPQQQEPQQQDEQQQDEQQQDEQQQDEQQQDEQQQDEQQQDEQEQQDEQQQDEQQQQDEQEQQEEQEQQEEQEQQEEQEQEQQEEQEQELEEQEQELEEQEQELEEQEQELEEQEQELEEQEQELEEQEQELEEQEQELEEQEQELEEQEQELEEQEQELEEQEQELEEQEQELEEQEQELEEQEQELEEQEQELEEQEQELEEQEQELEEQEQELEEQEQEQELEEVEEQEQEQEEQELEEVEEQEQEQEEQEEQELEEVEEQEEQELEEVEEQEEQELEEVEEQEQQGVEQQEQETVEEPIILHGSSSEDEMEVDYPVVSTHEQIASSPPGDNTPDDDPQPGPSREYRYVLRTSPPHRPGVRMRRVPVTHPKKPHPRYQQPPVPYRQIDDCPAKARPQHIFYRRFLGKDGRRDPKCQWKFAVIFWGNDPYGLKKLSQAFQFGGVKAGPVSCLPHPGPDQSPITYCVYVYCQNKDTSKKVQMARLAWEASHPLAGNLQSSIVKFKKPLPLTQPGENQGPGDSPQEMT

Cc1cc(C(=O)COC(=O)c2ccccc2O)c(C)n1Cc1cccs1
IC50 (HEK293 [1]): > 20 µM (inactive) | AC50 [2]: 12.2 µM (active) | AC50 [3]: 8.99 µM (active) | EC50 [4]: 0.102 µM (active) | IC50 (Tumor necrosis factor): < 0.0391 µM (active) | EC50 (cells [5]): 0.146 µM (active) | EC50 [6]: < 0.1 µM (active) | IC50 [7]: > 39.8 µM (not active) | AC50 (H4 [8]): 0.013 µM (active) | EC50 [9]: < 0.1 µM (active) | EC50 [10]: < 0.1 µM (active) | EC50 [11]: 0.159 µM (active) | AC50 (H4 [12]): 0.066 µM (active) | EC50 [13]: < 0.16 µM (active) | AC50 [14]: < 0.135 µM (active) | AC50 (H4 [15]): 0.00332 µM (active) | IC50 [16]: 0.285 µM (active)

CCOC(=O)c1c(NC(=O)c2cccs2)sc(CC)c1-c1cccs1
EC50 (Streptococcus [17]): > 500 µM (not active) | EC50 [18]: 47.6 µM (active) | EC50 (Streptococcus [19]): > 150 µM (not active) | EC50 (Streptokinase A): 9.89 µM (active)

Nc1cc(-c2ccc(Br)cc2)nn1Cc1ccccc1
EC50 [20]: > 112 µM (not active) | EC50 [21]: 7.99 µM (active) | EC50 [22]: 11.6 µM (not active) | EC50 (H4 [23]): 13.1 µM (active) | EC50 (cells [24]): > 29.9 µM (inactive) | IC50 (Galanin receptor type 3): 3.55 µM (active) | EC50 [25]: 13.1 µM (not active) | EC50 [26]: 18 µM (active) | EC50 (HEK293 [27]): 9.3 µM (active) | EC50 [28]: > 112 µM (not active)

CC1=C(O)C(O)=C(C2=C(O)C(O)=C(C)C(=O)C2=O)C(=O)C1=O
IC50 [29]: > 80 µM (inactive) | AC50 (ORF 73): 312 µM (active) | IC50 [30]: 1.27 µM (active) | AC50 (HeLa): 61.8 µM (active) | IC50 (Genome polyprotein): 28.3 µM (active) | CC50 (Vero): 31.7 µM (active) | IC50 [31]: < 0.16 µM (active)
